Values of other authors in US20100129295A1, “Compositions for preventing and/or treating gingivitis” (priority 2008, published 2010).
Each block holds one compound with its values, some of them ahead of it.

Key:
[1] = system: Kupffer cells
[2] = biological target: TNF-α (Homo sapiens, UniProt P01375)
[3] = females taking supplements; 27 females with gingivitis compared with women without
[4] = system: TNF-α induced cellular responses

TNF-α, sequence (P01375 whole entry, species assumed): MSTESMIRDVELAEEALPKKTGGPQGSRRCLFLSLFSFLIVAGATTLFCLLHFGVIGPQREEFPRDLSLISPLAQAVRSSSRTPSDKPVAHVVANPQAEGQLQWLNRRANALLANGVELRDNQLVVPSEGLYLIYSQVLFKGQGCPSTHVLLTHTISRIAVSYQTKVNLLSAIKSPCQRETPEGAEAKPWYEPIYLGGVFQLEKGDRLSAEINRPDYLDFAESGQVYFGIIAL

Structure (SMILES): C/C(O)=C(\C#N)C(=O)Nc1ccc(C(F)(F)F)cc1 [A 771726, teriflunomide]
TNF-α and IL-1 from Kupffer cells [1]: inhibits

inhibition of TNF-α [2]: inhibition
Structure (SMILES): Cc1cc(C(=O)Nc2ccc(Cl)cc2)no1 [UTL-5d]

Structure (SMILES): [Ca+2] [calcium]
risk of gingivitis [3]: reduced risk

Structure (SMILES): Cc1oncc1C(=O)Nc1ccc(C(F)(F)F)cc1 [leflunomide]
TNF-α induced cellular responses [4]: suppresses

Structure (SMILES): Cc1cc2nc3c(=O)[nH]c(=O)nc-3n(C[C@H](O)[C@H](O)[C@H](O)CO)c2cc1C [vitamin B2]
risk of gingivitis [3]: reduced risk
